# Assays:
# Assay in all cases: radiometric filter-binding kinase assay, Kinase HotSpot
# Details in all cases: compound 0.5 µM; ATP 10 µM
# ACVR1B (human) = ACVR1B (human) (UniProt P36896)
# AURKB (human) = AURKB (human) (UniProt Q96GD4)
# CAMK1 (human) = CAMK1 (human) (UniProt Q14012)
# CHEK1 (human) = CHEK1 (human) (UniProt O14757)
# CLK2 (human) = CLK2 (human) (UniProt P49760)
# DAPK2 (human) = DAPK2 (human) (UniProt Q9UIK4)
# EPHA3 (human) = EPHA3 (human) (UniProt P29320)
# EPHB3 (human) = EPHB3 (human) (UniProt P54753)
# ERBB2 (human) = ERBB2 (human) (UniProt P04626)
# FGFR1 (human) = FGFR1 (human) (UniProt P11362)
# GSK3B (human) = GSK3B (human) (UniProt P49841)
# IKBKE (human) = IKBKE (human) (UniProt Q14164)
# IRAK1 (human) = IRAK1 (human) (UniProt P51617)
# MAPK10 (human) = MAPK10 (human) (UniProt P53779)
# MAPK11 (human) = MAPK11 (human) (UniProt Q15759)
# MAPKAPK5 (human) = MAPKAPK5 (human) (UniProt Q8IW41)
# MET (human) = MET (human) (UniProt P08581)
# MINK1 (human) = MINK1 (human) (UniProt Q8N4C8)
# MKNK2 (human) = MKNK2 (human) (UniProt Q9HBH9)
# MLTK (human) = MLTK (human) (UniProt Q9NYL2)
# MST4 (human) = MST4 (human) (UniProt Q9P289)
# MYLK (human) = MYLK (human) (UniProt Q15746)
# MYLK2 (human) = MYLK2 (human) (UniProt Q9H1R3)
# NEK1 (human) = NEK1 (human) (UniProt Q96PY6)
# NEK7 (human) = NEK7 (human) (UniProt Q8TDX7)
# PAK4 (human) = PAK4 (human) (UniProt O96013)
# PHKG2 (human) = PHKG2 (human) (UniProt P15735)
# PLK1 (human) = PLK1 (human) (UniProt P53350)
# PNCK (human) = PNCK (human) (UniProt Q6P2M8)
# PRKCB1 (human) = PRKCB1 (human) (UniProt P05771)
# PRKCI (human) = PRKCI (human) (UniProt P41743)
# PRKD2 (human) = PRKD2 (human) (UniProt Q9BZL6)
# RET (human) = RET (human) (UniProt P07949)
# RPS6KA3 KD1 KD2 (human) = RPS6KA3 KD1 KD2 (human) (UniProt P51812)
# RPS6KA6 KD1 KD2 (human) = RPS6KA6 KD1 KD2 (human) (UniProt Q9UK32)
# RPS6KB1 (human) = RPS6KB1 (human) (UniProt P23443)
# STK25 (human) = STK25 (human) (UniProt O00506)
# STK3 (human) = STK3 (human) (UniProt Q13188)
# STK38 (human) = STK38 (human) (UniProt Q15208)
# TYRO3 (human) = TYRO3 (human) (UniProt Q06418)
# ULK3 (human) = ULK3 (human) (UniProt Q6PHR2)
# YES1 (human) = YES1 (human) (UniProt P07947)
# Chain of RPS6KA3 KD1 KD2 (human) (P51812 whole entry, looked up): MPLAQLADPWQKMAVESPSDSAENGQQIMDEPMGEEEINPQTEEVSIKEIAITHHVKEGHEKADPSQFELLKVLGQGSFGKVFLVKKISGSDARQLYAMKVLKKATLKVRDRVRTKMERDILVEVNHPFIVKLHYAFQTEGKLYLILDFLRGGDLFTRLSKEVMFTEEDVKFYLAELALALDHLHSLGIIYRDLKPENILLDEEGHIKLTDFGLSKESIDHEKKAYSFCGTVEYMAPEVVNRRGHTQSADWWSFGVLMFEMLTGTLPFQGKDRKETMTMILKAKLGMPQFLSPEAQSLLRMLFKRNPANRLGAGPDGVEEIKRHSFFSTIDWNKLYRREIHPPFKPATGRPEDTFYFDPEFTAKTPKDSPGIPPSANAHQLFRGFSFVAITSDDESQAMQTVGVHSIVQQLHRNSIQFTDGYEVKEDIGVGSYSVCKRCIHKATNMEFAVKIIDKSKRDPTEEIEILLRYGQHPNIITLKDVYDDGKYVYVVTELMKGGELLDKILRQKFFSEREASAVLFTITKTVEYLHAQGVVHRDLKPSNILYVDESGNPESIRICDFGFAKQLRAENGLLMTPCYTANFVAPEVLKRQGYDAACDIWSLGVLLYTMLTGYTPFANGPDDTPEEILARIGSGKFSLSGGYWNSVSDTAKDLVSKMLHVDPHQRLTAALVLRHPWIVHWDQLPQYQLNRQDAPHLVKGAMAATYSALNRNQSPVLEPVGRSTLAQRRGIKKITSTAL
# Chain of NEK1 (human) (Q96PY6 whole entry, looked up): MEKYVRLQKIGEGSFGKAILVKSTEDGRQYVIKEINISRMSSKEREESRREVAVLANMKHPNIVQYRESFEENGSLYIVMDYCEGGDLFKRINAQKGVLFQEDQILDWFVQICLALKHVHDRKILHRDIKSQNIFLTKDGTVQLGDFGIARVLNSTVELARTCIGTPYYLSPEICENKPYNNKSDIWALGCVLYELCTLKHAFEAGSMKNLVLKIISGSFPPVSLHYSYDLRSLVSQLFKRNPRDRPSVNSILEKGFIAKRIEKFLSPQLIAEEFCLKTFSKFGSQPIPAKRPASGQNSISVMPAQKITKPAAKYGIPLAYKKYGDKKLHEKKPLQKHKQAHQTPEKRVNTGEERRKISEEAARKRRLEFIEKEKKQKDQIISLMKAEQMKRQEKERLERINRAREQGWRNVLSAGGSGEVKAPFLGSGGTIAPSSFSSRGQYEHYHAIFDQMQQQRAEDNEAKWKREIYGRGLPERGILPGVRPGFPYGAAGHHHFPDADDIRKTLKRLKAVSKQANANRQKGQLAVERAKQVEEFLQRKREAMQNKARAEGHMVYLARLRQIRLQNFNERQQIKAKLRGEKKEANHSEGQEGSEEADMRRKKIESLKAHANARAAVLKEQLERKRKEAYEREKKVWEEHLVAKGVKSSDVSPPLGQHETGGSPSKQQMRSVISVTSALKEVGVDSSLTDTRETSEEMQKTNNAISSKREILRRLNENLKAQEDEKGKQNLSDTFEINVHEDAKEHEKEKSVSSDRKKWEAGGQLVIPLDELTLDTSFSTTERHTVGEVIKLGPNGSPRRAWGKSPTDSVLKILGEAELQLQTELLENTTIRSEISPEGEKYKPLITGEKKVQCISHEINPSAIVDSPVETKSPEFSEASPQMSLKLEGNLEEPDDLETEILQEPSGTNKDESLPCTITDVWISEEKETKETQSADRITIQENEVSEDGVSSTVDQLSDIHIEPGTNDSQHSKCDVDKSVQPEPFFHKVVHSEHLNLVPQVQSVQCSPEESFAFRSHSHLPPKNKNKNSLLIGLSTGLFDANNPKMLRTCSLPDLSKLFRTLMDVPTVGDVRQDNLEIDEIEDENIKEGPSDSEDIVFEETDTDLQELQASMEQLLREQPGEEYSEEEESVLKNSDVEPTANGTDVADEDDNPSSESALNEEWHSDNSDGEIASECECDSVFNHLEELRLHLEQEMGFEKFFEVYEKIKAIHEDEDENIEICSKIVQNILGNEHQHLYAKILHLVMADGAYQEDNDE
# Chain of STK3 (human) (Q13188 whole entry, looked up): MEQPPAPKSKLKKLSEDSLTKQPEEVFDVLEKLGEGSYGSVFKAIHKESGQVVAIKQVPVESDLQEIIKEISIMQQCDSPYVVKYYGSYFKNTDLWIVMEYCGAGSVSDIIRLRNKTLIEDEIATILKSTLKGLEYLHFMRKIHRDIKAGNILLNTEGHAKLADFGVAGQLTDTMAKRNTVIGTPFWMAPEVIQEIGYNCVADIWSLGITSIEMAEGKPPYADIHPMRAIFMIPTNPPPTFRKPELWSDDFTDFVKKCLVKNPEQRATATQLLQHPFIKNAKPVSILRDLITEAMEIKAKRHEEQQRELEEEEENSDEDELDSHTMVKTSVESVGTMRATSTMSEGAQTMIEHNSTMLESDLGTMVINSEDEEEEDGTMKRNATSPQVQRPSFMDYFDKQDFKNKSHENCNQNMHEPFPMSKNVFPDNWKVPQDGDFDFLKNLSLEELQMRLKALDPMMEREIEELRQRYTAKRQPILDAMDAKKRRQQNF
# Chain of EPHA3 (human) (P29320 whole entry, looked up): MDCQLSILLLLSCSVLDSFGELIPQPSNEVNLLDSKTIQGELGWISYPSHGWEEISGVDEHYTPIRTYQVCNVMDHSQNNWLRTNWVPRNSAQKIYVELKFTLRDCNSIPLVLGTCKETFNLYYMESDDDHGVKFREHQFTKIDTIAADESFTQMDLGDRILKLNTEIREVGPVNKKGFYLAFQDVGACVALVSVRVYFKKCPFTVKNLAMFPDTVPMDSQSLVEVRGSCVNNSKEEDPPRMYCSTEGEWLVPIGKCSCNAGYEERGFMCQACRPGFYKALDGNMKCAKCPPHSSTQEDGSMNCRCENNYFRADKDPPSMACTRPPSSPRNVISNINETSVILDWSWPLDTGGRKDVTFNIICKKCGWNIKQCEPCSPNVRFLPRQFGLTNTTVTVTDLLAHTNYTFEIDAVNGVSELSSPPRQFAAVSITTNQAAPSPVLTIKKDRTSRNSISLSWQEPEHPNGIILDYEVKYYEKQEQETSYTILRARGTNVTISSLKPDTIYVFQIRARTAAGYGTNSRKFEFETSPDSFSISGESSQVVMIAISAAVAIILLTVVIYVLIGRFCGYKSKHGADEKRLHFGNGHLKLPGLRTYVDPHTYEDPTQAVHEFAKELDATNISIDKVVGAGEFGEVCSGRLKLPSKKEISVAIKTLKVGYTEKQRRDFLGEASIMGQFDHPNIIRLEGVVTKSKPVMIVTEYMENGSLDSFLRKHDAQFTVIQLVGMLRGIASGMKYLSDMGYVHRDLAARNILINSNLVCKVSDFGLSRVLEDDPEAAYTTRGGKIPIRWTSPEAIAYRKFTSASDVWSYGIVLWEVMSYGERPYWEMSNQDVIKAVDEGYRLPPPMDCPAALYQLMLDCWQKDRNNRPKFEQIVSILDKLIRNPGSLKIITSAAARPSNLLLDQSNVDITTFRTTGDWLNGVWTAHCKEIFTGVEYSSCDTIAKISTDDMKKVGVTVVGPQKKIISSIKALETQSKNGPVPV
# Chain of MYLK2 (human) (Q9H1R3 whole entry, looked up): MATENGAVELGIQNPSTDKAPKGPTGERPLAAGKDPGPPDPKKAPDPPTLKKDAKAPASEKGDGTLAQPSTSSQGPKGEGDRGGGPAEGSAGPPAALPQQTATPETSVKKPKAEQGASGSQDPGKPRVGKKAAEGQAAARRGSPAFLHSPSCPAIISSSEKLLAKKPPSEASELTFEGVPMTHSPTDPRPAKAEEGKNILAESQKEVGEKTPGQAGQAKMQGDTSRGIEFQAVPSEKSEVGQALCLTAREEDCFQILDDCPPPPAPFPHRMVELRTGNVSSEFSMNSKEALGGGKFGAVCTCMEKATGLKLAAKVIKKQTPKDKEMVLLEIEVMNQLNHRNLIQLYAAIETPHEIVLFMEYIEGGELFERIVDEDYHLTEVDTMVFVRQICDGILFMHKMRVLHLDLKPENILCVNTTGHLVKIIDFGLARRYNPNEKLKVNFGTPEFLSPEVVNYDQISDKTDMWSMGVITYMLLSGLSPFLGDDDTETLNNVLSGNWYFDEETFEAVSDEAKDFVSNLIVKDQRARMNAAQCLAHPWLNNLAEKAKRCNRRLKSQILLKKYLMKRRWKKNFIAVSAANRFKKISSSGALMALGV
# Chain of EPHB3 (human) (P54753 whole entry, looked up): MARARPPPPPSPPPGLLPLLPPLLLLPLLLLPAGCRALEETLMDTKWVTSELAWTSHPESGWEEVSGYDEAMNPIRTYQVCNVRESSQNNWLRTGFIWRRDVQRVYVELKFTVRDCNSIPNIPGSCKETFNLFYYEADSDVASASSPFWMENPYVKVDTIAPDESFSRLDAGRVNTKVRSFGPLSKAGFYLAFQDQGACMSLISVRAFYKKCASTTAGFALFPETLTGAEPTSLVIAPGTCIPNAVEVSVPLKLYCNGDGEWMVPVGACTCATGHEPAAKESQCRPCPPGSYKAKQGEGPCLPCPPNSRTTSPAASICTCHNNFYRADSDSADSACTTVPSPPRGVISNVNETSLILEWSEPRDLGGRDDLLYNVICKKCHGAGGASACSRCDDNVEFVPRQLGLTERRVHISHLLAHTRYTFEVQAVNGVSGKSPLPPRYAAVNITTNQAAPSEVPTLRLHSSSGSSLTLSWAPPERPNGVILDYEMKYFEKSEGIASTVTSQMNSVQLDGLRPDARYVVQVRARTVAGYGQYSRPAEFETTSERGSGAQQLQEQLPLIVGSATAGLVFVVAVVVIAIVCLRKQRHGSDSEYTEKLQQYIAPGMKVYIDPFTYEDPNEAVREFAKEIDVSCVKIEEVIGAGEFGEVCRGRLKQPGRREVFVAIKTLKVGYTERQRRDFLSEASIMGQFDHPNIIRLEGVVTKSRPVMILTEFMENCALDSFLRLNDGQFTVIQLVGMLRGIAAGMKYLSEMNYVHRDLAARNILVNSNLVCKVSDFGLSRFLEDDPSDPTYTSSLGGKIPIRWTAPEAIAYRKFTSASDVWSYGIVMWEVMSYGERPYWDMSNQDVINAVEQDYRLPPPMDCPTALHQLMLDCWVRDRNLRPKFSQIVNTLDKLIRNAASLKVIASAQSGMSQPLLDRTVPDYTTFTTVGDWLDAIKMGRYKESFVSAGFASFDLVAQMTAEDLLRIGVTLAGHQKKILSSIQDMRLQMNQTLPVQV
compound,measurement,setting,value
O=C1NC(=O)C(c2cn(CCCn3ccnc3)c3ccccc23)=C1Nc1ccccc1,residual activity,ACVR1B (human),96.2%
same,residual activity,AURKB (human),95.4%
same,residual activity,CAMK1 (human),106%
same,residual activity,CHEK1 (human),76.6%
same,residual activity,CLK2 (human),14.7%
same,residual activity,DAPK2 (human),104%
same,residual activity,EPHA3 (human),102%
same,residual activity,EPHB3 (human),99.7%
same,residual activity,ERBB2 (human),93.6%
same,residual activity,FGFR1 (human),78.5%
same,residual activity,GSK3B (human),14.2%
same,residual activity,IKBKE (human),87%
same,residual activity,IRAK1 (human),118%
same,residual activity,MAPK10 (human),100%
same,residual activity,MAPK11 (human),111%
same,residual activity,MAPKAPK5 (human),96.4%
same,residual activity,MET (human),100%
same,residual activity,MINK1 (human),90.1%
same,residual activity,MKNK2 (human),87.2%
same,residual activity,MLTK (human),104%
same,residual activity,MST4 (human),22.2%
same,residual activity,MYLK (human),81.6%
same,residual activity,MYLK2 (human),95.7%
same,residual activity,NEK1 (human),114%
same,residual activity,NEK7 (human),102%
same,residual activity,PAK4 (human),97.8%
same,residual activity,PHKG2 (human),107%
same,residual activity,PLK1 (human),99.5%
same,residual activity,PNCK (human),90.6%
same,residual activity,PRKCB1 (human),9.78%
same,residual activity,PRKCI (human),90.7%
same,residual activity,PRKD2 (human),94.3%
same,residual activity,RET (human),95.6%
same,residual activity,RPS6KA3 KD1 KD2 (human),3.85%
same,residual activity,RPS6KA6 KD1 KD2 (human),2%
same,residual activity,RPS6KB1 (human),42.7%
same,residual activity,STK25 (human),63.1%
same,residual activity,STK3 (human),52%
same,residual activity,STK38 (human),99.1%
same,residual activity,TYRO3 (human),99.6%
same,residual activity,ULK3 (human),84.7%
same,residual activity,YES1 (human),89.3%
O=C1Nc2ccc(Cl)cc2/C1=C/c1cc(Cl)c(O)c(Cl)c1,residual activity,ACVR1B (human),127%
same,residual activity,AURKB (human),9.19%
same,residual activity,CAMK1 (human),94.9%
same,residual activity,CHEK1 (human),86.4%
same,residual activity,CLK2 (human),95.5%
same,residual activity,DAPK2 (human),135%
same,residual activity,EPHA3 (human),82.5%
same,residual activity,EPHB3 (human),91%
same,residual activity,ERBB2 (human),107%
same,residual activity,FGFR1 (human),90.8%
same,residual activity,GSK3B (human),80.8%
same,residual activity,IKBKE (human),94.7%
same,residual activity,IRAK1 (human),95.4%
same,residual activity,MAPK10 (human),98.8%
same,residual activity,MAPK11 (human),99.2%
same,residual activity,MAPKAPK5 (human),92.4%
same,residual activity,MET (human),96.4%
same,residual activity,MINK1 (human),22.4%
same,residual activity,MKNK2 (human),88.7%
same,residual activity,MLTK (human),77.4%
same,residual activity,MST4 (human),101%
same,residual activity,MYLK (human),62.3%
same,residual activity,MYLK2 (human),71.5%
same,residual activity,NEK1 (human),81.5%
same,residual activity,NEK7 (human),100%
same,residual activity,PAK4 (human),88.7%
same,residual activity,PHKG2 (human),98.4%
same,residual activity,PLK1 (human),99.8%
same,residual activity,PNCK (human),94.2%
same,residual activity,PRKCB1 (human),97.3%
same,residual activity,PRKCI (human),94.1%
same,residual activity,PRKD2 (human),95.5%
same,residual activity,RET (human),80.4%
same,residual activity,RPS6KA3 KD1 KD2 (human),96%
same,residual activity,RPS6KA6 KD1 KD2 (human),78.5%
same,residual activity,RPS6KB1 (human),91%
same,residual activity,STK25 (human),94%
same,residual activity,STK3 (human),31.6%
same,residual activity,STK38 (human),85.4%
same,residual activity,TYRO3 (human),94.9%
same,residual activity,ULK3 (human),92.2%
same,residual activity,YES1 (human),78.3%
Nc1ncnc2c1c(-c1ccc(Oc3ccccc3)cc1)cn2C1CCCC1,residual activity,ACVR1B (human),93.9%
same,residual activity,AURKB (human),88.6%
same,residual activity,CAMK1 (human),100%
same,residual activity,CHEK1 (human),113%
same,residual activity,CLK2 (human),95.2%
same,residual activity,DAPK2 (human),87.6%
same,residual activity,EPHA3 (human),96.3%
same,residual activity,EPHB3 (human),93.4%
same,residual activity,ERBB2 (human),101%
same,residual activity,FGFR1 (human),77.4%
same,residual activity,GSK3B (human),99.2%
same,residual activity,IKBKE (human),97.4%
same,residual activity,IRAK1 (human),110%
same,residual activity,MAPK10 (human),87.4%
same,residual activity,MAPK11 (human),106%
same,residual activity,MAPKAPK5 (human),98.7%
same,residual activity,MET (human),110%
same,residual activity,MINK1 (human),105%
same,residual activity,MKNK2 (human),94.9%
same,residual activity,MLTK (human),70.3%
same,residual activity,MST4 (human),95.2%
same,residual activity,MYLK (human),98.4%
same,residual activity,MYLK2 (human),92.4%
same,residual activity,NEK1 (human),79.3%
same,residual activity,NEK7 (human),94.6%
same,residual activity,PAK4 (human),101%
same,residual activity,PHKG2 (human),96.9%
same,residual activity,PLK1 (human),100%
same,residual activity,PNCK (human),96.2%
same,residual activity,PRKCB1 (human),92.8%
same,residual activity,PRKCI (human),103%
same,residual activity,PRKD2 (human),91.5%
same,residual activity,RET (human),9.97%
same,residual activity,RPS6KA3 KD1 KD2 (human),96.9%
same,residual activity,RPS6KA6 KD1 KD2 (human),96.6%
same,residual activity,RPS6KB1 (human),104%
same,residual activity,STK25 (human),113%
same,residual activity,STK3 (human),97.7%
same,residual activity,STK38 (human),99.3%
same,residual activity,TYRO3 (human),102%
same,residual activity,ULK3 (human),102%
same,residual activity,YES1 (human),0.657%
Nc1ccc2ncnc(NCCc3ccc(Oc4ccccc4)cc3)c2c1,residual activity,ACVR1B (human),101%
same,residual activity,AURKB (human),99.1%
same,residual activity,CAMK1 (human),107%
same,residual activity,CHEK1 (human),101%
same,residual activity,CLK2 (human),83%
same,residual activity,DAPK2 (human),80.4%
same,residual activity,EPHA3 (human),102%
same,residual activity,EPHB3 (human),97.3%
same,residual activity,ERBB2 (human),108%
same,residual activity,FGFR1 (human),86.3%
same,residual activity,GSK3B (human),102%
same,residual activity,IKBKE (human),95.6%
same,residual activity,IRAK1 (human),107%
same,residual activity,MAPK10 (human),104%
same,residual activity,MAPK11 (human),98.1%
same,residual activity,MAPKAPK5 (human),101%
same,residual activity,MET (human),99.9%
same,residual activity,MINK1 (human),95.4%
same,residual activity,MKNK2 (human),104%
same,residual activity,MLTK (human),102%
same,residual activity,MST4 (human),94.4%
same,residual activity,MYLK (human),98.5%
same,residual activity,MYLK2 (human),97.6%
same,residual activity,NEK1 (human),102%
same,residual activity,NEK7 (human),96%
same,residual activity,PAK4 (human),105%
same,residual activity,PHKG2 (human),98.7%
same,residual activity,PLK1 (human),91.1%
same,residual activity,PNCK (human),98.5%
same,residual activity,PRKCB1 (human),96.3%
same,residual activity,PRKCI (human),103%
same,residual activity,PRKD2 (human),98.2%
same,residual activity,RET (human),101%
same,residual activity,RPS6KA3 KD1 KD2 (human),101%
same,residual activity,RPS6KA6 KD1 KD2 (human),103%
same,residual activity,RPS6KB1 (human),99.5%
same,residual activity,STK25 (human),116%
same,residual activity,STK3 (human),105%
same,residual activity,STK38 (human),97.9%
same,residual activity,TYRO3 (human),101%
same,residual activity,ULK3 (human),112%
same,residual activity,YES1 (human),112%
